Assays:
[1] = Metabolite identification, human liver cytosol incubation of parent compound; format: in vitro ADME; details: for Relative Abundance of metabolite, Human Liver Cytosol: parent incubated one hour; as to Relative Abundance of metabolite, Human Liver Cytosol: key: −: metabolite not observed; +: minor metabolite; +++: major metabolite
Procedure: (§1) Cytosol: 1-{2-[5-(3-Methyl-oxetan-3-ylmethoxy)-benzoimidazol-1-yl]-quinolin-8-yl}-piperidin-4-ylamine (10 μM) was incubated and prepared for analysis. Cryopreserved human liver cytosol from Tissue Transformation Technologies Inc., Edison, N.J., (lot: HHC-0255, ˜20 mg/mL) and dog liver cytosol (˜35 mg/mL) were thawed on ice immediately before the incubation. The cytosol was diluted 10-fold in 100 mM potassium phosphate buffer (pH 7.4) before addition of 1-{2-[5-(3-Methyl-oxetan-3-ylmethoxy)-benzoimidazol-1-yl]-quinolin-8-yl}-piperidin-4-ylamine (final concentration […]) for a final incubation volume of 2 mL. Samples were incubated for one hour in a 37° C. water bath, then quenched with two volumes of acetonitrile. Samples were vortexed and subsequently centrifuged at 3000 rpm. Samples were prepared for analysis by centrifugation at 3000 rpm to pellet the precipitated proteins and by evaporating the supernatant to dryness. The samples were reconstituted in 300 μL 50/50 10 mM ammonium formate, pH 3.0/acetonitrile. A 10 μL reconstituted aliquot was analyzed by LC/MS/MS. 1-{2-[5-(2-Methoxy-ethoxy)-benzoimidazol-1-yl]-quinolin-8-yl}-piperidin-4-ylamine was incubated in human and dog liver cytosol under the same conditions as a positive control.
(§2) Separation of 1-{2-[5-(3-Methyl-oxetan-3-ylmethoxy)-benzoimidazol-1-yl]-quinolin-8-yl}-piperidin-4-ylamine and its metabolites in all samples was accomplished on a Zorbax SB-C18 reverse phase column (5 μm, 4.6×150 mm) at a flow rate of 1.0 mL/min. The mobile phase consisted of 10 mM ammonium formate, pH 3.0, (A) and acetonitrile (B). After injection of the sample, the column was washed with 10% B for 5 minutes followed by resolution of the metabolites with a linear gradient from 10% to 50% B over a 20-minute period. A 5-minute wash with 90% B followed by a 7-minute re-equilibration to 10% B was used between subsequent injections.
(§3) All Samples were analyzed by a Finnigan TSQ7000 mass spectrometer operated in positive ion mode with in-line ultraviolet detection (Shimadzu, λ=254 nm). Ionspray voltage and capillary temperature were maintained at 4.5 kV and 350 degrees Celsius, respectively. Product ion spectra were obtained with CID of 35 V; further fragmentation was obtained by conducting product ion scans with source CID of 10 V. Neutral loss scans of 176 (for glucuronide detection) were conducted with CID of 30 V.
(§4) The metabolites were initially identified by molecular ion (Q1) scans of the sample mixture. Potential metabolites were characterized by fragmentation of the metabolite molecular ions and comparison of the resulting fragmentation patterns with the 1-{2-[5-(3-Methyl-oxetan-3-ylmethoxy)-benzoimidazol-1-yl]-quinolin-8-yl}-piperidin-4-ylamine product mass spectrum.

[2] = Metabolite identification, human cryopreserved hepatocyte incubation of parent compound; format: in vitro ADME; details: parent incubated up to four hours
Procedure: (§5) Hepatocytes: Rat, dog and human cryopreserved hepatocyte incubations were performed using 1-{2-[5-(3-Methyl-oxetan-3-ylmethoxy)-benzoimidazol-1-yl]-quinolin-8-yl}-piperidin-4-ylamine. Rat, dog and human cryopreserved hepatocytes were obtained from In Vitro Technologies, Baltimore, Md. and suspended in Williams E Media, available from Fisher-Scientific, to a final cell density of 1×10^6 viable cells/mL. 1-{2-[5-(3-Methyl-oxetan-3-ylmethoxy)-benzoimidazol-1-yl]-quinolin-8-yl}-piperidin-4-ylamine was incubated in these hepatocyte suspensions at a final concentration of […] at 37° C. in a shaking water bath for up to four hours. A 5 mL aliquot was removed from each incubation mixture immediately and at four hours after addition of substrate. The samples were prepared for analysis by mixing with two volumes of acetonitrile followed by centrifugation to pellet precipitated proteins. The […] were evaporated to dryness before analysis. Dried samples were reconstituted in 300 μL 50/50 10 mM ammonium formate, pH 3.0/acetonitrile, and 10 μL aliquots were analyzed by LC/MS/MS. 1-{2-[5-(2-Methoxy-ethoxy)-benzoimidazol-1-yl]-quinolin-8-yl}-piperidin-4-ylamine was incubated in dog hepatocytes under the same conditions as a positive control.
as §2, §3, §4

[3] = Metabolite identification, dog liver cytosol incubation of parent compound; format: in vitro ADME; details: for Relative Abundance of metabolite, Dog Liver Cytosol: parent incubated one hour
Procedure: as §1, §2, §3, §4

[4] = Metabolite identification in dog plasma after intravenous administration of parent compound; format: in vivo, beagle dogs; details: for Relative Abundance of metabolite, Dog Plasma (IV): 2.0 mg/kg intravenous parent, 20 min, 40 min and 1 h samples
Procedure: Dog Plasma and Bile: Dog plasma was collected from beagle dogs following intravenous administration (2.0 mg/kg) of 1-{2-[5-(3-Methyl-oxetan-3-ylmethoxy)-benzoimidazol-1-yl]-quinolin-8-yl}-piperidin-4-ylamine. A 200 μL plasma sample from each dog was pooled for each timepoint. Three volumes of acetonitrile were added to the pooled plasma samples to precipitate proteins. Following centrifugation, the supernatant was recovered and dried at 37° C. under nitrogen and reconstituted in 150 μL 50/50 10 mM ammonium formate, pH 3.0/acetonitrile. A 20 μL aliquot was analyzed by LC/MS/MS.
as §2, §3, §4

[5] = Metabolite identification, rat cryopreserved hepatocyte incubation of parent compound; format: in vitro ADME; details: parent incubated up to four hours
Procedure: as §5, §2, §3, §4

[6] = Metabolite identification, dog cryopreserved hepatocyte incubation of parent compound; format: in vitro ADME; details: parent incubated up to four hours
Procedure: as §5, §2, §3, §4

[7] = Metabolite identification in dog bile after administration of parent compound; format: in vivo, beagle dogs; details: for Relative Abundance of metabolite, Dog Bile (IV): only 2-4 hr samples analyzed, cannot distinguish between M6 and M7; for Excretion in bile: dog, after 5.0 mg/kg oral administration of parent
[8] = target: T1, microsomal epoxide hydrolase (Homo sapiens, UniProt P07099); assay: Microsomal epoxide hydrolase inhibitor studies; format: in vitro ADME
T1 sequence (P07099 1-455): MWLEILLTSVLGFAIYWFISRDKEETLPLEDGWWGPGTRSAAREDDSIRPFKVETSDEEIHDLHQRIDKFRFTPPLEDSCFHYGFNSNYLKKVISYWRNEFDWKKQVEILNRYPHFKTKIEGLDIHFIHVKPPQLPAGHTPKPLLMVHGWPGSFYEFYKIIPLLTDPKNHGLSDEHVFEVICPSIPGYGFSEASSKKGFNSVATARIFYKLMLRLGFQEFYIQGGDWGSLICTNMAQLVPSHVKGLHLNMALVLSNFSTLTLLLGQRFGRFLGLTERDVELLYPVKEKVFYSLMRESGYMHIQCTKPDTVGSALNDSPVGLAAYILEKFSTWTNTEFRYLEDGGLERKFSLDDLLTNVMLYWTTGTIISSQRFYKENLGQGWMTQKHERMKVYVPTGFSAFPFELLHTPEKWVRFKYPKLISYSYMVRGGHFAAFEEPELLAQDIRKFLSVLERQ

[9] = Metabolite identification, human liver microsome incubation of parent compound; format: in vitro ADME; details: for Relative Abundance of metabolite, HLM-NADPH ctrl: human liver microsomes, control without NADPH; for Relative Abundance of metabolite, Human Liver Microsomes: parent incubated 1 h with NADPH, relative peak height on UV chromatogram
Procedure: (§6) Microsomes: 1-{2-[5-(3-Methyl-oxetan-3-ylmethoxy)-benzoimidazol-1-yl]-quinolin-8-yl}-piperidin-4-ylamine (10 μM) was incubated in mouse, rat, dog, monkey and human liver microsomes and collected for analysis. 1-{2-[5-(3-Methyl-oxetan-3-ylmethoxy)-benzoimidazol-1-yl]-quinolin-8-yl}-piperidin-4-ylamine, (final concentration […]) was incubated in mouse (0.45 mg/mL protein), rat ([…] protein), dog ([…] protein), monkey (0.42 mg/mL protein) and human liver microsomes (1.56 mg/mL protein) containing MgCl2 (10 mM) and NADPH (1 mM) in potassium phosphate buffer (100 mM, pH 7.4) at 37° C. The total volume of each reaction mixture was 5 mL containing a total cytochrome P450 concentration of […]. Each mixture was preincubated for 10 minutes before addition of NADPH to initiate the reaction. The reaction was stopped one hour after addition of NADPH by adding two volumes of acetonitrile to the reaction mixture. […] Samples were prepared for analysis by centrifugation at 300 rpm to pellet the precipitated proteins and by evaporating the supernatant to dryness. The dried […] were reconstituted in 600 μL 50/50 10 mM ammonium formate, pH 3.0/acetonitrile, and 10 μL aliquots were analyzed by liquid chromatography and mass spectroscopy (LC/MS/MS). 1-{2-[5-(2-Methoxy-ethoxy)-benzoimidazol-1-yl]-quinolin-8-yl}-piperidin-4-ylamine was incubated in dog liver microsomes under the same conditions as a positive control.
as §2, §3, §4

[10] = Metabolite identification, rat liver microsome incubation of parent compound; format: in vitro ADME; details: for Relative Abundance of metabolite, Rat Liver Microsomes: parent incubated 1 h with NADPH; for Relative Abundance of metabolite, RLM-NADPH ctrl: rat liver microsomes, control without NADPH
Procedure: as §6, §2, §3, §4

[11] = Metabolite identification, dog liver microsome incubation of parent compound; format: in vitro ADME; details: for Relative Abundance of metabolite, DLM-NADPH ctrl: dog liver microsomes, control without NADPH; for Relative Abundance of metabolite, Dog Liver Microsomes: parent incubated 1 h with NADPH
Procedure: as §6, §2, §3, §4

Relative Abundance of metabolite, Human Liver Cytosol [1]	Relative Abundance of metabolite, Human Hepatocytes [2]	Relative Abundance of metabolite, Dog Liver Cytosol [3]	Relative Abundance of metabolite, Dog Plasma (IV) [4]	Relative Abundance of metabolite, Rat Hepatocytes [5]	Relative Abundance of metabolite, Dog Hepatocytes [6]	Relative Abundance of metabolite, Dog Bile (IV) [7]	Excretion in bile [7]	Relative Abundance of metabolite, HLM-NADPH ctrl [9]	Relative Abundance of metabolite, Human Liver Microsomes [9]	Relative Abundance of metabolite, Rat Liver Microsomes [10]	Relative Abundance of metabolite, RLM-NADPH ctrl [10]	Relative Abundance of metabolite, DLM-NADPH ctrl [11]	Relative Abundance of metabolite, Dog Liver Microsomes [11]	SMILES	further results
−	−	−	−	−	+ (minor metabolite)	−								CC(CO)(COc1ccc2c(c1)ncn2-c1ccc2cccc(N3CCC(N)CC3)c2n1)COC1O[C@H](C(=O)O)[C@@H](O)[C@H](O)[C@H]1O (stereo in doubt) [Metabolite M5, 6-(3-{1-[8-(4-Amino-piperidin-1-yl)-quinolin-2-yl]-1H-benzoimidazol-5-yloxy}-2-hydroxymethyl-2-methyl-propoxy)-3,4,5-trihydroxy-tetrahydro-pyran-2-carboxylic acid]	
−	+++ (major metabolite)	+++ (major metabolite)	+++ (major metabolite)	+++ (major metabolite)	+++ (major metabolite)	+++ (major metabolite)	excreted in bile	+ (minor metabolite)	+++ (major metabolite)	+++ (major metabolite)	+ (minor metabolite)	+++ (major metabolite)	+++ (major metabolite)	CC(CO)(CO)COc1ccc2c(c1)ncn2-c1ccc2cccc(N3CCC(N)CC3)c2n1 [Metabolite M1, 2-{1-[8-(4-Amino-piperidin-1-yl)-quinolin-2-yl]-1H-benzoimidazol-5-yloxymethyl}-2-methyl-propane-1,3-diol]	Formation of M1, cofactor dependence ([9]; human): NADPH dependent; Formation of M1, cofactor dependence ([10]; rat): NADPH dependent; Metabolite status in dog liver cytosolic incubations [3]: predominant metabolite; Formation of M1, cytochrome P450 mediation ([11]; dog): not mediated by cytochrome P450; Metabolite status in dog plasma ([4]; twenty minutes to one hour after 2.0 mg/kg intravenous administration of parent): major metabolite
−	+++ (major metabolite)	−	−	+++ (major metabolite)	+ (minor metabolite)	+ (minor metabolite)	excreted in bile	−	+++ (major metabolite)	−	−	−	+ (minor metabolite)	CC(CO)(COc1ccc2c(c1)ncn2-c1ccc2cccc(N3CCC(N)CC3)c2n1)C(=O)O (stereo not drawn) [Metabolite M2, 3-{1-[8-(4-Amino-piperidin-1-yl)-quinolin-2-yl]-1H-benzoimidazol-5-yloxy}-2-hydroxymethyl-2-methyl-propionic acid]	
−	−	−	−	−	−	+ (minor metabolite)		−	−	−	−	−	−	NC1CCN(c2cccc3ccc(-n4cnc5cc(O)ccc54)nc23)CC1 [Metabolite M8, 1-[8-(4-Amino-piperidin-1-yl)-quinolin-2-yl]-1H-benzoimidazol-5-ol]	Observation in bile ([7]; dog bile 2-4 hr post-dose of parent): observed in bile

SMILES	Relative Abundance of metabolite, Human Liver Cytosol [1]	Relative Abundance of metabolite, Human Hepatocytes [2]	Relative Abundance of metabolite, Dog Liver Cytosol [3]	Relative Abundance of metabolite, Dog Plasma (IV) [4]	Relative Abundance of metabolite, Rat Hepatocytes [5]	Relative Abundance of metabolite, Dog Hepatocytes [6]	Relative Abundance of metabolite, Dog Bile (IV) [7]	Excretion in bile [7]	Relative Abundance of metabolite, HLM-NADPH ctrl [9]	Relative Abundance of metabolite, Human Liver Microsomes [9]	Relative Abundance of metabolite, Rat Liver Microsomes [10]	Relative Abundance of metabolite, RLM-NADPH ctrl [10]	Relative Abundance of metabolite, DLM-NADPH ctrl [11]	Relative Abundance of metabolite, Dog Liver Microsomes [11]	further results
CC1(COc2ccc3c(c2)ncn3-c2ccc3cccc(N4CCC(N)CC4)c3n2)COC1 [1-{2-[5-(3-Methyl-oxetan-3-ylmethoxy)-benzoimidazol-1-yl]-quinolin-8-yl}-piperidin-4-ylamine, reference compound]								appears to be excreted in bile							Metabolites in human liver cytosolic incubations ([1]; parent incubated in human liver cytosol): No metabolites were observed; Substrate for microsomal epoxide hydrolase [8]: not a substrate

Source: patent US20100016353A1, “BENZOIMIDAZOLE DERIVATIVES USEFUL AS ANTIPROLIFERATIVE AGENTS” (priority 2004, published 2010)
